Read-outs that look alike come from different tables or passages of the source.

Consider five molecules from article PMC11173422, “Substitution-Induced Mechanistic Switching in SNAr-Warheads for Cysteine Proteases” (Molecules, 2024).

The conditions of data set [1]: cited from earlier work.
Data set [2] in a line: Parallel artificial membrane permeability assay (PAMPA). The note with it: pH 7.4. (PAMPA measures passive passage across an artificial lipid membrane.)
Description: An artificial membrane consisting of phosphatidylcholine dissolved in n-dodecane was employed to control equilibration between two connected aqueous compartments, of which one contained the compound of interest. This model for compound permeation through a cell membrane was incubated, and the resulting concentration in the acceptor compartment was quantified spectroscopically.
A general literature-known principle was used [11]. Propranolol hydrochloride was sourced from Changzou Yabang Pharmaceutical (Fagron GmbH & Co. KG). Candesartan cilexetil was sourced as a chemical reference standard from the EDQM (catalogue code Y0001388).
Incubation setup consisted of donor (top) plate (Sigma Aldrich, MAIPNTR10), 5 µL artificial membrane
(1 % (w/v) L-α-phosphatidyl choline, Sigma Aldrich P3556, in n-dodecane, Sigma Aldrich 8205430100),
transparent measurement plate (Greiner UV-Star®, 655801), Tecan Spark 10M® well plate reader, 200 µL
The target in data set [3] is T1, Rhodesain (TbCatL) (Trypanosoma brucei rhodesiense, UniProt Q95PM0).
T1 construct: stably transformed with the rhodesain ΔC gene cloned into the pPICZαA vector; made in house; host or cells: Pichia pastoris X-33 (pPICZαA, secreted into the culture supernatant)
The conditions noted are these: lead compound, published data ref 17; cited from earlier work.

Data set [4] concerns Trypanosoma brucei. Details: method as in PMID 32210166. The conditions noted are these: cell cultures, free acid; cited from earlier work.
Data set [5] concerns the target rhodesain (Trypanosoma brucei rhodesiense, UniProt Q95PM0). More on the design: stably transformed with the rhodesain ΔC gene cloned into the pPICZαA vector; made in house; host or cells: Pichia pastoris X-33 (pPICZαA, secreted into the culture supernatant); method as in PMID 32210166, PMID 34378914. The conditions noted are these: cited from earlier work.
Data set [6] in a line: Aqueous solubility observed in PAMPA set-up. Type of data set: physicochemical. The note with it: buffered aqueous solution pH 7.4, 5% DMSO. The method, then: acceptor (bottom) plate (Greiner, 655074). Measurement setup for direct spectroscopy consisted of UV- […]
sample volume, λ = 200–650 nm. […]
elution (0.7 mL/min). Injection volume was 100 µL. Areas of peaks in the chromatogram (detection-λ = 210 nm) were used to calculate the AUCs. Retention time and mass spectrum recorded in positive ionization mode were used to assign species. Analysis was performed using MestreNova. […]
donor plate. This was sealed (Greiner, 676070, Viewseal sealer). 400 µL of acceptor solution was applied to the acceptor plate. Incubation setup was assembled and left for 7 h. After this time, acceptor and reference solutions were analyzed.
The acceptor solutions of those were measured
P௔௣௣ = −(௏ವ ା௏ಲ )∗஺∗௧ eq. 6

rhodesain, sequence (Q95PM0 entry or part of it): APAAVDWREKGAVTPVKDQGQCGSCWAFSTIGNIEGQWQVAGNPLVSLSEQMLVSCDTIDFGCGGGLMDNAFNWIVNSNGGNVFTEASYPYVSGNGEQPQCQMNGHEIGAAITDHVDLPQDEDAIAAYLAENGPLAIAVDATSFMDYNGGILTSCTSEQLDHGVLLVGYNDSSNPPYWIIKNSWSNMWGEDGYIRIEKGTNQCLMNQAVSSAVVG
T1 sequence (Q95PM0 entry or part of it): as above

For orientation: Papp means a coefficient for how fast a substance crosses the barrier. High values mean fast passage, low ones slow passage. As for `CCOc1nc2cccc(C(=O)OC(C)OC(=O)OC3CCCCC3)c2n1Cc1ccc(-c2ccccc2-c2nnn[nH]2)cc1` (centres unmarked) [Candesartan cilexetil, reference compound], the “Lit. Papp” value in data set [1] (literature value ref 37) is 0.6 [37] ×10^−6 cm/s. The same molecule showed a Papp at 7 h, 100 µM in data set [2] of 1.3 ± 0.2 ×10⁻⁶ cm/s.
One may read the Ki as the equilibrium dissociation constant of an inhibitor or competing ligand from its target. What is called EC50 is the concentration that produces a half-maximal response. Consider `CC(C)C[C@H](NC(=O)[C@H](Cc1ccccc1)Nc1cc([N+](=O)[O-])c([N+](=O)[O-])cc1F)C(=O)O` [Compound I], for which, in data set [3], the Ki was 0.004 ± 0.0013 µM. Further, the EC50 in data set [4] is 20 µM. For the same molecule, the “Adduct with rhodesain in MALDI-TOF-MS” value in data set [5] was “no adduct could be detected”.
Turning to `CC(C)NCC(O)COc1cccc2ccccc12` (centres unmarked) [Propranolol, reference compound], in data set [1] (literature value ref 35, 36), the “Lit. Papp” value is 8–14 [35, 36] ×10^−6 cm/s. The same molecule showed a Papp at 7 h, 100 µM in data set [2] of 9.9 ± 1 ×10⁻⁶ cm/s.
For the molecule `CC(C)C[C@H](NC(=O)[C@H](Cc1ccccc1)Nc1cc(F)c([N+](=O)[O-])cc1[N+](=O)[O-])C(=O)OC(C)(C)C` [Compound 21], the aqueous solubility result in data set [6] is “poor aqueous solubility”. The Papp at 7 h, 100 µM in data set [2] amounted to 3.4 ± 1.8 ×10⁻⁶ cm/s.
Regarding `CC(C)C[C@H](NC(=O)[C@H](Cc1ccccc1)Nc1ccc([N+](=O)[O-])c([N+](=O)[O-])c1)C(=O)OC(C)(C)C` [Compound 20], the aqueous solubility entry in data set [6] is “poor aqueous solubility”. This molecule also showed a Papp at 7 h, 100 µM in data set [2] of 9.3 ± 0.7 ×10⁻⁶ cm/s.
